Reference: US20210078958A1, “QUINAZOLINE DERIVATIVE AND USE THEREOF” (MEDSHINE DISCOVERY INC., priority 2017, published 2021)
Like-named read-outs stand apart in the source and are kept apart here.

What was measured:
[1] = tested on: subcutaneous xenograft tumor of human gastric cancer NCI-N87 cells; type: in vivo; settings: for Tumor volume (mm3) (Day 21) / T/C (%) / TGI (%): 3 mg/kg (D0-7) + 1 mg/kg (D8-21); for Tumor volume (mm3) (Day 21): NCI-N87 xenograft, Mean ± SEM; for T/C (%) / TGI (%): day 21
Experimental: Purpose of the assay: to evaluate the in vivo efficacy of compounds to be tested on subcutaneous xenograft tumor of human gastric cancer NCI-N87 cells in a BALB/c nude mouse model.
Animals of the assay: female BALB/c nude mice, 6-8 weeks old, weighted 18-22 grams; supplier: shanghai sippr bk laboratory animals Ltd.
(§1) Human gastric cancer NCI-N87 cells were cultured in monolayer in vitro. The culture conditions were RPMI-1640 medium plus 10% fetal bovine serum, 100 U/mL penicillin, 100 μg/mL streptomycin and 2 mM glutamine, 37° C., 5% CO2. The passaging was performed by the conventional digestion with trypsin-EDTA twice a week. When the cell saturation was 80%-90%, the cells were collected, counted and inoculated.
0.2 mL (10×10^6 cells) of NCI-N87 cells were inoculated subcutaneously on the right back of each nude mouse (PBS+Matrigel, 1:1). When the average tumor volume reached 145 mm^3, administration to each group was started.
The test compounds were formulated into a 0.3 mg/mL clear solution in the solvents of 10% NMP (N-methylpyrrolidone)+10% ethylene glycol stearate+80% water.
(§2) The assay index is to investigate whether tumor growth is inhibited, delayed or cured. Tumor diameter was measured twice a week with a vernier caliper. The calculation formula of tumor volume is: V=0.5a×b^2, wherein a and b represent the long and short diameters of tumor, respectively.
(§3) The antitumor efficacy of the compounds were evaluated by TGI (%) or relative tumor proliferation rate T/C (%). TGI (%) reflects the tumor growth inhibition rate. TGI (%) is calculated as follows: TGI (%)=[1−(average tumor volume at the end of administration for a certain treatment group−average tumor volume at the beginning of administration for this treatment group)/(average tumor volume at the end of treatment for a solvent control group−average tumor volume at the beginning of administration for this solvent control group)]×control group.
Relative tumor proliferation rate T/C (%): the calculation formula is as follows: T/C %=TRTV/CRTV (TRTV: RTV for the treatment group; CRTV: RTV for the negative control group). Relative tumor volume (RTV) is calculated based on tumor measurement results. The calculation formula is RTV=Vt/V0, wherein V0 is the average tumor volume measured at the beginning of administration (i.e., d0) to each group, Vt is the average tumor volume at a certain measurement, and the data for TRTV and CRTV were taken on the same day.
The tumor weight was measured after the assay is over and the T/C weight percentage was calculated. T weight and C weight represent the tumor weight of the administration group and the vehicle control group, respectively.
(§4) Statistical analysis included the mean and standard error (SEM) of tumor volume at each time point in each group. […] The comparison between two groups was analyzed by T-test, and the comparison among three or more groups was analyzed by one-way ANOVA. […] All data analysis was carried out with SPSS 17.0. p<0.05 was considered a significant difference.

[2] = tested on: subcutaneous xenograft tumor of human gastric cancer NCI-N87 cells; assay: Assay Example 4: in vivo pharmacodynamics, NCI-N87 xenograft; set-up: species or system BALB/c nude mouse; settings: for Tumor volume (mm3) (Day 28): NCI-N87 xenograft, Mean + SEM; for T/C (%) / TGI (%): day 28
Experimental: Purpose of the assay: to evaluate the in vivo efficacy of test compounds disclosed herein on subcutaneous xenograft tumor of human gastric cancer NCI-N87 cells in a BALB/c nude mouse model.
Animals of the assay: female BALB/c nude mice, 6-8 weeks old, weighted 18-22 grams; supplier: Shanghai Ling Chang Biotechnology Co., Ltd.
as §1, with “U/mL” for “μg/mL”, “by” for “by the”
0.2 mL (10×10^6) of NCI-N87 cells (PBS+Matrigel, 1:1) were inoculated subcutaneously on the right back of each mouse. When the average tumor volume reached 158 mm^3, administration to each group was started.
The test compounds were formulated into a 0.04 mg/mL and 0.08 mg/mL clear solution in and the solvents of 10% NMP (N-methylpyrrolidone)+10% ethylene glycol stearate+80% water.
as §2
as §3, with “or” for “or relative”, “group)]×100%.” for “group)]×control group.”
Tumor proliferation rate T/C (%): the calculation formula is as follows: T/C (%)=average tumor volume at the end of administration for a certain treatment group/average tumor volume at the end of treatment for the solvent control group×100%.
as §4, with “group (See Table 5-1 for specific data).” for “group.”

CYP3A4 = target: T1, CYP3A4 (Homo sapiens, UniProt P08684); assay: inhibition of CYP enzyme activity in human liver microsome, CYP3A4; type: in vitro ADME
T1 construct: in the assay of CYP enzyme activity in human liver microsome; from tissue; host or cells: human liver microsome
Excerpt: The results of the compounds disclosed herein and the reference compound Poziotinib in the assay of CYP enzyme activity in human liver microsome were shown in the following table (Table 8).

T1 sequence (P08684 whole entry): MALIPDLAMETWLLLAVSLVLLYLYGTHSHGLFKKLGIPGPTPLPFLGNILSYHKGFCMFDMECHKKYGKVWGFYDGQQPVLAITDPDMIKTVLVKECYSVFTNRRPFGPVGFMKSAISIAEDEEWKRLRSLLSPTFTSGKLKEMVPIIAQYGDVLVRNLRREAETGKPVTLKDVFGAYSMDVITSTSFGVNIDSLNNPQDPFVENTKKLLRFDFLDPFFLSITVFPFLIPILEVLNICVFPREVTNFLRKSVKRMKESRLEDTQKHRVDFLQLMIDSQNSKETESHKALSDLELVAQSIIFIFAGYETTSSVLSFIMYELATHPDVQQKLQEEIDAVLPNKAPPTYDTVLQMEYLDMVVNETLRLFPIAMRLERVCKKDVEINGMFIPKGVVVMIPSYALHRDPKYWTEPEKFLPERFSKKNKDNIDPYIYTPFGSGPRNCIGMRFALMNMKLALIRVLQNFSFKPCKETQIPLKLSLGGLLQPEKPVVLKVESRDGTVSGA

Row | SMILES | Tumor volume (mm3) (Day 21) [1] | T/C (%) [1] [%] | TGI (%) [1] [%] | body weight of test animals (reference index for drug toxicity) ([1]; mouse, in vivo) | Tumor volume (mm3) (Day 28) ([2]; 0.4 mg/kg) | T/C (%) ([2]; 0.4 mg/kg) | TGI (%) ([2]; 0.4 mg/kg) | Tumor volume (mm3) (Day 28) ([2]; 0.8 mg/kg) | T/C (%) ([2]; 0.8 mg/kg) | TGI (%) ([2]; 0.8 mg/kg) | IC50 (CYP3A4) [µM] | inhibition of CYP enzyme CYP3A4 (CYP3A4)
1 | C=CC(=O)N1[C@@H]2CC[C@H]1C[C@H](Oc1cc3c(Nc4ccc(Cl)c(Cl)c4F)ncnc3cc1OC)C2 [Example 8] | 30 ± 7 | 4.19 | 119.71 | significantly better than that of the control compound Poziotinib |  |  |  |  |  |  |  | 
2 | C=CC(=O)N1[C@@H]2CC[C@H]1C[C@H](Nc1cc3c(Nc4ccc(Cl)c(Cl)c4F)ncnc3cc1OC)C2 [Example 38] |  |  |  |  | 47 ± 13 | 7.51 | 123.72 | 15 ± 3 | 2.40 | 130.56 | > 50 | no inhibitory activity
3 | C=CC(=O)N1CCC(Oc2cc3c(Nc4ccc(Cl)c(Cl)c4F)ncnc3cc2OC)CC1 [Poziotinib, reference compound] | 54 ± 12 | 7.55 | 115.6 |  | 84 ± 9 | 13.42 | 115.81 | 28 ± 8 | 4.47 | 127.78 | > 50 | no inhibitory activity
